In PubChem BioAssay AID192 (DTP/NCI, 2004):
Several values for one entry are separate records, joined by “and”; a condition that tells them apart may be missing. Identical values can stand only once. Toxic doses and inconclusive results are not listed. The calls were made as follows: active = survival T/C of 150% or more; inactive = T/C below 125% in these data.

Test system: BDF1 mice, B16 melanoma ip, median survival T/C
Test: NCI In Vivo Anticancer Drug Screen. Data for tumor model B16 Melanoma (intraperitoneal) in B6D2F1 (BDF1) mice
Details: endpoint: median survival time, higher = longer survival
Procedure, shortened: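 The ratio T/C compares compound-treated mice with vehicle-treated controls, using survival or tumor size as the endpoint in a transplantable tumor model.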

[1] = dose: 50.0 mg/kg/injection, schedule: Q01DX009 (ip), vehicle: Klucel (hydroxypropylcellulose) (HPC)
[2] = dose: 100.0 mg/kg/injection, schedule: Q01DX009 (ip), vehicle: Klucel (hydroxypropylcellulose) (HPC)
[3] = dose: 100.0 mg/kg/injection, schedule: Q01DX009 (ip), vehicle: saline with Tween-80
[4] = dose: 200.0 mg/kg/injection, schedule: Q01DX009 (ip), vehicle: saline with Tween-80
[5] = dose: 400.0 mg/kg/injection, schedule: Q01DX009 (ip), vehicle: saline with Tween-80
[6] = dose: 12.5 mg/kg/injection, schedule: Q01DX009 (ip), vehicle: saline with Tween-80
[7] = dose: 12.5 mg/kg/injection, schedule: Q01DX009 (ip), vehicle: saline
[8] = dose: 25.0 mg/kg/injection, schedule: Q01DX009 (ip), vehicle: saline with Tween-80
[9] = dose: 25.0 mg/kg/injection, schedule: Q01DX009 (ip), vehicle: saline
[10] = dose: 50.0 mg/kg/injection, schedule: Q01DX009 (ip), vehicle: saline with Tween-80
[11] = dose: 50.0 mg/kg/injection, schedule: Q01DX009 (ip), vehicle: saline
[12] = dose: 12.5 mg/kg/injection, schedule: Q01DX009 (ip), vehicle: Klucel (hydroxypropylcellulose) (HPC)
[13] = dose: 25.0 mg/kg/injection, schedule: Q01DX009 (ip), vehicle: Klucel (hydroxypropylcellulose) (HPC)

Measured: T/C

Nn1c(=O)[nH][nH]c1=O
inactive: [1] 92 % of control | [2] 110 % of control | [3] 115 % of control | dose: 200.0 mg/kg/injection, schedule: Q01DX009 (ip), vehicle: Klucel (hydroxypropylcellulose) (HPC) 89 % of control | [4] 105 % of control | [5] 105 % of control

C1CN1P1(N2CC2)=NP(N2CC2)(N2CC2)=NP(N2CC2)(N2CC2)=N1
active: dose: 8.0 mg/kg/injection, schedule: Q01DX009 (ip), vehicle: saline with Tween-80 170 % of control | dose: 8.0 mg/kg/injection, schedule: Q02DX009 (ip), vehicle: saline with Tween-80 153 % of control
inactive: dose: 0.25 mg/kg/injection, schedule: Q02DX009 (ip), vehicle: saline with Tween-80 87 % of control | dose: 0.5 mg/kg/injection, schedule: Q01DX009 (ip), vehicle: saline with Tween-80 108 % of control | dose: 0.5 mg/kg/injection, schedule: Q02DX009 (ip), vehicle: saline with Tween-80 101 % of control | dose: 1.0 mg/kg/injection, schedule: Q01DX009 (ip), vehicle: saline with Tween-80 124 % of control | dose: 1.0 mg/kg/injection, schedule: Q02DX009 (ip), vehicle: saline with Tween-80 87 % of control and 94 % of control | dose: 2.0 mg/kg/injection, schedule: Q01DX009 (ip), vehicle: saline with Tween-80 123 % of control | dose: 2.0 mg/kg/injection, schedule: Q02DX009 (ip), vehicle: saline with Tween-80 99 % of control and 122 % of control

COc1cc2c(c(O)c1OC)-c1c(cc(OC)c(OC)c1OC)CC(C)C(C)C2 (configuration not stated)
inactive: dose: 11.25 mg/kg/injection, schedule: Q01DX009 (ip), vehicle: saline + Tween-80 + alcohol 101 % of control | dose: 22.5 mg/kg/injection, schedule: Q01DX009 (ip), vehicle: saline + Tween-80 + alcohol 105 % of control | dose: 45.0 mg/kg/injection, schedule: Q01DX009 (ip), vehicle: saline + Tween-80 + alcohol 97 % of control | dose: 90.0 mg/kg/injection, schedule: Q01DX009 (ip), vehicle: saline + Tween-80 + alcohol 106 % of control

Clc1ccc2c(c1)/C(=C/c1ccccc1Cl)c1cc(Cl)cc(Cl)c1-2
inactive: dose: 6.25 mg/kg/injection, schedule: Q01DX009 (ip), vehicle: saline with Tween-80 90 % of control | [6] 88 % of control

COc1ccc2cc1Oc1ccc(cc1)C[C@H]1c3cc(c(OC)cc3CCN1C)Oc1c(OC)c(OC)cc3c1[C@H](C2)N(C)CC3
inactive: dose: 12.5 mg/kg/injection, schedule: Q01DX009 (ip), vehicle: other 109 % of control | [6] 106 % of control and 108 % of control | [7] 97 % of control | dose: 12.5 mg/kg/injection, schedule: Q04DX003 (ip), vehicle: saline 94 % of control | dose: 25.0 mg/kg/injection, schedule: Q01DX009 (ip), vehicle: other 106 % of control | [8] 106 % of control and 115 % of control | [9] 100 % of control | dose: 25.0 mg/kg/injection, schedule: Q04DX003 (ip), vehicle: saline 108 % of control | dose: 50.0 mg/kg/injection, schedule: Q01DX009 (ip), vehicle: other 102 % of control | [10] 94 % of control and 113 % of control | [11] 105 % of control | dose: 50.0 mg/kg/injection, schedule: Q04DX003 (ip), vehicle: saline 97 % of control | [3] 89 % of control and 101 % of control and 109 % of control | dose: 100.0 mg/kg/injection, schedule: Q04DX003 (ip), vehicle: saline 100 % of control

CC(=O)OC1C(O)C(C)OC(OC2C(OC(=O)C3CCC4C(C3)OC3(CC(OC(=O)/C=C/c5ccccc5)C(C)CO3)C43CO3)OC(C)C(O)C2OC(C)=O)C1O (configuration not stated)
inactive: dose: 0.5 mg/kg/injection, schedule: Q01DX009 (ip), vehicle: saline + alcohol 110 % of control | dose: 1.0 mg/kg/injection, schedule: Q01DX009 (ip), vehicle: saline + alcohol 120 % of control
active: dose: 8.0 mg/kg/injection, schedule: Q01DX009 (ip), vehicle: saline + alcohol 152 % of control and 158 % of control | dose: 16.0 mg/kg/injection, schedule: Q01DX009 (ip), vehicle: saline + alcohol 151 % of control

O=NO.O=N[O-].O=N[O-].[Co+3].[NH2-].[NH2-].[NH2-].[NH2-]
inactive: dose: 6.25 mg/kg/injection, schedule: Q01DX009 (ip), vehicle: Klucel (hydroxypropylcellulose) (HPC) 88 % of control | [12] 91 % of control | [13] 92 % of control and 101 % of control

Nc1ncnc2c1ccn2C1OC(CO)C(O)C1O (configuration not stated)
inactive: dose: 0.32 mg/kg/injection, schedule: Q01DX009 (ip), vehicle: saline 107 % of control | dose: 0.5 mg/kg/injection, schedule: Q01DX009 (ip), vehicle: Klucel (hydroxypropylcellulose) (HPC) 91 % of control | dose: 0.63 mg/kg/injection, schedule: Q01DX009 (ip), vehicle: saline 120 % of control | dose: 1.0 mg/kg/injection, schedule: Q01DX009 (ip), vehicle: Klucel (hydroxypropylcellulose) (HPC) 99 % of control | dose: 2.0 mg/kg/injection, schedule: Q01DX009 (ip), vehicle: Klucel (hydroxypropylcellulose) (HPC) 90 % of control

CN(C)CCCN1c2ccc(O)cc2Sc2ccc(Cl)cc21
inactive: dose: 3.1 mg/kg/injection, schedule: Q01DX009 (ip), vehicle: other 92 % of control | [10] 117 % of control | [3] 124 % of control

O=c1ncccn1[C@@H]1O[C@H](CO)[C@H](O)C1O (some centres not stated)
active: dose: 400.0 mg/kg/injection, schedule: Q01DX009 (ip), vehicle: saline 166 % of control
inactive: [9] 119 % of control | [11] 115 % of control

c1ccc([B-]2([C+]3CCCCC3)N3CCCCC3C3CCCCN32)cc1 (configuration not stated)
inactive: [12] 106 % of control | [13] 93 % of control

COc1cc2c(c3c1c(=O)c1ccccc1n3C)C=CC(C)(C)O2
inactive: [8] 102 % of control | [10] 107 % of control

C[C@H](CN1CC(=O)NC(=O)C1)N1CC(=O)NC(=O)C1
inactive: dose: 8.0 mg/kg/injection, schedule: Q01DX009 (ip), vehicle: saline 108 % of control | dose: 16.0 mg/kg/injection, schedule: Q01DX009 (ip), vehicle: saline 120 % of control | dose: 16.0 mg/kg/injection, schedule: Q01DX009 (ip), vehicle: water 107 % of control | dose: 25.0 mg/kg/injection, schedule: Q04DX003 (ip), vehicle: water 111 % of control | dose: 32.0 mg/kg/injection, schedule: Q01DX009 (ip), vehicle: water 111 % of control | dose: 50.0 mg/kg/injection, schedule: Q04DX003 (ip), vehicle: water 94 % of control | dose: 100.0 mg/kg/injection, schedule: Q04DX003 (ip), vehicle: water 106 % of control | dose: 128.0 mg/kg/injection, schedule: Q01DX009 (ip), vehicle: water 101 % of control | dose: 200.0 mg/kg/injection, schedule: Q04DX003 (ip), vehicle: water 107 % of control

CC(C)(C)C1CCCCC1
inactive: [12] 96 % of control | [13] 105 % of control | [1] 95 % of control | [2] 88 % of control

CN(C)CCCN1c2ccccc2CCc2ccccc21
inactive: dose: 3.12 mg/kg/injection, schedule: Q01DX009 (ip), vehicle: saline 95 % of control | dose: 6.25 mg/kg/injection, schedule: Q01DX009 (ip), vehicle: saline 102 % of control | [7] 104 % of control | [9] 93 % of control | [11] 104 % of control

O=C1NC(=O)c2cccc3cccc1c23
inactive: dose: 100.0 mg/kg/injection, schedule: Q04DX003 (ip), vehicle: saline with Tween-80 94 % of control

COc1ccc(NC(=O)Nc2ccc(Cl)cc2)cc1
inactive: dose: 100.0 mg/kg/injection, schedule: Q04DX003 (ip), vehicle: Klucel (hydroxypropylcellulose) (HPC) 100 % of control | dose: 200.0 mg/kg/injection, schedule: Q04DX003 (ip), vehicle: Klucel (hydroxypropylcellulose) (HPC) 95 % of control | dose: 400.0 mg/kg/injection, schedule: Q04DX003 (ip), vehicle: Klucel (hydroxypropylcellulose) (HPC) 90 % of control

CCOc1cc([N+](=O)[O-])c(OCC)cc1Cl
inactive: [3] 94 % of control | [4] 97 % of control | [5] 96 % of control

COC(=O)C(N)CCCCNc1ccc2c(cc1=O)C(NC(C)=O)CCc1cc(OC)c(OC)c(OC)c1-2 (configuration not stated)
inactive: dose: 35.0 mg/kg/injection, schedule: Q01DX009 (ip), vehicle: saline 103 % of control | dose: 53.0 mg/kg/injection, schedule: Q01DX009 (ip), vehicle: saline 106 % of control | dose: 80.0 mg/kg/injection, schedule: Q01DX009 (ip), vehicle: saline 93 % of control | dose: 120.0 mg/kg/injection, schedule: Q01DX009 (ip), vehicle: saline 88 % of control | dose: 180.0 mg/kg/injection, schedule: Q01DX009 (ip), vehicle: saline 92 % of control
